PubChem BioAssay (NCI)
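Results reflect a 48-hour exposure of cells in 96-well plates to compound at five concentrations. GI50 marks 50% less growth. TGI denotes the concentration required for complete inhibition of growth.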

Columns and labels:
Experiment in all cases: NCI tumour cell line growth inhibition, 48 h
OVCAR-8 ovarian = test system: OVCAR-8 ovarian
SNB-19 CNS = test system: SNB-19 CNS
HL-60(TB) leukemia = test system: HL-60(TB) leukemia
UACC-257 melanoma = test system: UACC-257 melanoma
CAKI-1 renal = test system: CAKI-1 renal
HOP-62 NSCLC = test system: HOP-62 NSCLC
NCI-H23 lung = test system: NCI-H23 lung
IGROV1 ovarian = test system: IGROV1 ovarian
SN12C renal = test system: SN12C renal
MDA-MB-435 = test system: MDA-MB-435
COLO 205 colon = test system: COLO 205 colon
T-47D breast = test system: T-47D breast
HS 578T breast = test system: HS 578T breast
BT-549 breast = test system: BT-549 breast
SW-620 colon = test system: SW-620 colon
NCI-H522 lung = test system: NCI-H522 lung
MDA-MB-231 breast = test system: MDA-MB-231 breast
UO-31 renal = test system: UO-31 renal
SR leukemia = test system: SR leukemia
SK-MEL-5 melanoma = test system: SK-MEL-5 melanoma
PC-3 prostate = test system: PC-3 prostate
HOP-92 NSCLC = test system: HOP-92 NSCLC
NCI-H226 lung = test system: NCI-H226 lung
OVCAR-5 ovarian = test system: OVCAR-5 ovarian
HT29 colon = test system: HT29 colon
OVCAR-4 ovarian = test system: OVCAR-4 ovarian
SK-OV-3 ovarian = test system: SK-OV-3 ovarian
SF-268 CNS = test system: SF-268 CNS
MCF7 breast = test system: MCF7 breast
U251 CNS = test system: U251 CNS
DU-145 prostate = test system: DU-145 prostate
SK-MEL-28 melanoma = test system: SK-MEL-28 melanoma
786-0 renal = test system: 786-0 renal
RPMI-8226 leukemia = test system: RPMI-8226 leukemia
CCRF-CEM leukemia = test system: CCRF-CEM leukemia
SF-539 CNS = test system: SF-539 CNS
SK-MEL-2 melanoma = test system: SK-MEL-2 melanoma
TK-10 renal = test system: TK-10 renal
A549 NSCLC = test system: A549 NSCLC
ACHN renal = test system: ACHN renal
SF-295 CNS = test system: SF-295 CNS
HCC-2998 colon = test system: HCC-2998 colon
RXF 393 renal = test system: RXF 393 renal
HCT-15 colon = test system: HCT-15 colon
KM12 colon = test system: KM12 colon
NCI-H460 lung = test system: NCI-H460 lung
NCI/ADR-RES ovarian = test system: NCI/ADR-RES ovarian
MOLT-4 leukemia = test system: MOLT-4 leukemia
M14 melanoma = test system: M14 melanoma
HCT-116 colon = test system: HCT-116 colon
A498 renal = test system: A498 renal
K-562 leukemia = test system: K-562 leukemia
EKVX NSCLC = test system: EKVX NSCLC
UACC-62 melanoma = test system: UACC-62 melanoma
MALME-3M melanoma = test system: MALME-3M melanoma

## O=[N+]([O-])c1ccc(-c2nnc(SCc3ccc(O)c4ncccc34)n2-c2ccccc2)cc1
OVCAR-8 ovarian
  GI50: 240 nM
  TGI: > 100 µM
SNB-19 CNS
  GI50: 254 nM
  TGI: > 100 µM
HL-60(TB) leukemia
  GI50: 447 nM
  TGI: > 22.9 µM
UACC-257 melanoma
  GI50: 1380 nM
  TGI: > 26.1 µM
CAKI-1 renal
  GI50: 2410 nM
  TGI: > 100 µM
HOP-62 NSCLC
  GI50: 990 nM
  TGI: > 100 µM
NCI-H23 lung
  GI50: 433 nM
  TGI: > 100 µM
IGROV1 ovarian
  GI50: 1560 nM
  TGI: > 100 µM
SN12C renal
  GI50: 293 nM
  TGI: > 100 µM
MDA-MB-435
  GI50: 329 nM
  TGI: > 100 µM
COLO 205 colon
  GI50: 2510 nM
  TGI: 7.02 µM
T-47D breast
  GI50: 834 nM
  TGI: > 100 µM
HS 578T breast
  GI50: 312 nM
  TGI: > 100 µM
BT-549 breast
  GI50: 175 nM
  TGI: > 100 µM
SW-620 colon
  GI50: 479 nM
  TGI: > 100 µM
NCI-H522 lung
  GI50: 253 nM
  TGI: > 29.6 µM
MDA-MB-231 breast
  GI50: 1050 nM
  TGI: 4.69 µM
UO-31 renal
  GI50: 1950 nM
  TGI: > 100 µM
SR leukemia
  GI50: 420 nM
  TGI: > 100 µM
SK-MEL-5 melanoma
  GI50: 363 nM
  TGI: 1970 nM
PC-3 prostate
  GI50: 114 nM
  TGI: > 100 µM
HOP-92 NSCLC
  GI50: 69 nM
  TGI: 598 nM
NCI-H226 lung
  GI50: 4.3 µM
  TGI: > 100 µM
OVCAR-5 ovarian
  GI50: 3.35 µM
  TGI: > 100 µM
HT29 colon
  GI50: 3.19 µM
  TGI: > 100 µM
OVCAR-4 ovarian
  GI50: 2120 nM
  TGI: > 100 µM
SK-OV-3 ovarian
  GI50: 1760 nM
  TGI: 6.35 µM
SF-268 CNS
  GI50: 360 nM
  TGI: > 100 µM
MCF7 breast
  GI50: 325 nM
  TGI: > 100 µM
U251 CNS
  GI50: 191 nM
  TGI: > 100 µM
DU-145 prostate
  GI50: 442 nM
  TGI: > 100 µM
SK-MEL-28 melanoma
  GI50: 715 nM
  TGI: > 100 µM
786-0 renal
  GI50: 1360 nM
  TGI: > 84.2 µM
RPMI-8226 leukemia
  GI50: 695 nM
  TGI: > 100 µM
CCRF-CEM leukemia
  GI50: 507 nM
  TGI: > 100 µM
SF-539 CNS
  GI50: 377 nM
  TGI: > 100 µM
SK-MEL-2 melanoma
  GI50: 314 nM
  TGI: 1820 nM
TK-10 renal
  GI50: 2860 nM
  TGI: > 100 µM
A549 NSCLC
  GI50: 410 nM
  TGI: > 100 µM
ACHN renal
  GI50: 2030 nM
  TGI: > 100 µM
SF-295 CNS
  GI50: 444 nM
  TGI: 5.04 µM
HCC-2998 colon
  GI50: 1400 nM
  TGI: > 100 µM
RXF 393 renal
  GI50: 651 nM
  TGI: > 100 µM
HCT-15 colon
  GI50: 1050 nM
  TGI: > 100 µM
KM12 colon
  GI50: 585 nM
  TGI: > 100 µM
NCI-H460 lung
  GI50: 229 nM
  TGI: > 100 µM
NCI/ADR-RES ovarian
  GI50: 7.35 µM
  TGI: > 100 µM
MOLT-4 leukemia
  GI50: 777 nM
  TGI: > 100 µM
M14 melanoma
  GI50: 493 nM
  TGI: > 100 µM
HCT-116 colon
  GI50: 127 nM
  TGI: > 100 µM
A498 renal
  GI50: 2300 nM
  TGI: 17 µM
K-562 leukemia
  GI50: 447 nM
  TGI: > 100 µM
EKVX NSCLC
  GI50: 1430 nM
  TGI: > 100 µM
UACC-62 melanoma
  GI50: 2060 nM
  TGI: > 100 µM
MALME-3M melanoma
  GI50: 1170 nM
  TGI: 8.45 µM
